Drawing on ChEMBL document CHEMBL1155084 (J Med Chem, 2008), this text covers inhibition and IC50 for 29 molecules.

Broadly, the inhibition is the share of the control response that was lost under treatment. As usually defined, the IC50 is the concentration at which inhibition is half-maximal. A lower IC50 goes with higher potency.

Each structure is given as a SMILES string.

Series [1] has as its target CYP2C19 (Homo sapiens, UniProt P33261). Description: Inhibition of CYP2C19 at 10 uM. The series is classed as ADME.
Series [2] has as its target CYP2D6 (Homo sapiens, UniProt P10635). In words: Inhibition of CYP2D6 at 10 uM. The series is classed as ADME.
Series [3] deals with CYP3A4 (Homo sapiens, UniProt P08684). Description: Inhibition of CYP3A4 at 10 uM. The series is classed as ADME.
Series [4] concerns the target CYP2C9 (Homo sapiens, UniProt P11712). Description: Inhibition of CYP2C9 at 10 uM. The series is classed as ADME.
Series [5] concerns Blood. In words: Inhibition of TNFalpha release in human whole blood. The series is classed as functional, tissue-based.
Series [6] addresses T1, CYP1A2 (Homo sapiens, UniProt P05177).
T1 sequence (P05177 whole entry): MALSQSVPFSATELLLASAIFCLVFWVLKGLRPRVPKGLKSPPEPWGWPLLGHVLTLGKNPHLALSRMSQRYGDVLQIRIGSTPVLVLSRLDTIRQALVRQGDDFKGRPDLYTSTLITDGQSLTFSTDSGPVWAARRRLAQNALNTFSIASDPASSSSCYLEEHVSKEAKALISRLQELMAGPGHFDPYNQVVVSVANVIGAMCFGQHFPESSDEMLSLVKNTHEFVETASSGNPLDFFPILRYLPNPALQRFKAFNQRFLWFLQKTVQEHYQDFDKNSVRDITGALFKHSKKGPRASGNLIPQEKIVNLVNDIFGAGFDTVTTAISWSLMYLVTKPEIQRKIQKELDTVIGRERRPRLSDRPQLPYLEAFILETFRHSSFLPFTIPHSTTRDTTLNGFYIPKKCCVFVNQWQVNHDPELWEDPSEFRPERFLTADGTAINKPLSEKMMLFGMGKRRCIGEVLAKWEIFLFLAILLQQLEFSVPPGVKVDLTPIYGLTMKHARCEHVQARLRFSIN
Description: Inhibition of CYP1A2 at 10 uM. The series is classed as ADME.

Series [7] addresses Mitogen-activated protein kinase 14 (Homo sapiens, UniProt Q16539). Description: Inhibition of p38alpha.
The test system of series [8] is Blood. Description: Inhibition of IL1-beta release in human whole blood. The series is classed as functional, tissue-based.

Chain of CYP2D6 (P10635 whole entry): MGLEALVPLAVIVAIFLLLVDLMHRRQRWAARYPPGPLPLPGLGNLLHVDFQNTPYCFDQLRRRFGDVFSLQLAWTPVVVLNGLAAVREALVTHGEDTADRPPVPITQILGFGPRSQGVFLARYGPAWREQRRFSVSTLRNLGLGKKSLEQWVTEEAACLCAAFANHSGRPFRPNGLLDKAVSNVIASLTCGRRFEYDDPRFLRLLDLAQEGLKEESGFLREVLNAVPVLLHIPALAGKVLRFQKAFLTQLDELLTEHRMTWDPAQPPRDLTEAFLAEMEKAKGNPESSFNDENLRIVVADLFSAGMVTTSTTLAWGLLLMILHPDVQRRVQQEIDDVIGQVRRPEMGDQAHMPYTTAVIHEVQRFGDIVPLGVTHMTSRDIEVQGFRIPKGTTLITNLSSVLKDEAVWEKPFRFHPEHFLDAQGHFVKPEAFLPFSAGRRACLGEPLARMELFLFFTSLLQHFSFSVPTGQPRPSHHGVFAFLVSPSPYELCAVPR
Chain of CYP3A4 (P08684 whole entry): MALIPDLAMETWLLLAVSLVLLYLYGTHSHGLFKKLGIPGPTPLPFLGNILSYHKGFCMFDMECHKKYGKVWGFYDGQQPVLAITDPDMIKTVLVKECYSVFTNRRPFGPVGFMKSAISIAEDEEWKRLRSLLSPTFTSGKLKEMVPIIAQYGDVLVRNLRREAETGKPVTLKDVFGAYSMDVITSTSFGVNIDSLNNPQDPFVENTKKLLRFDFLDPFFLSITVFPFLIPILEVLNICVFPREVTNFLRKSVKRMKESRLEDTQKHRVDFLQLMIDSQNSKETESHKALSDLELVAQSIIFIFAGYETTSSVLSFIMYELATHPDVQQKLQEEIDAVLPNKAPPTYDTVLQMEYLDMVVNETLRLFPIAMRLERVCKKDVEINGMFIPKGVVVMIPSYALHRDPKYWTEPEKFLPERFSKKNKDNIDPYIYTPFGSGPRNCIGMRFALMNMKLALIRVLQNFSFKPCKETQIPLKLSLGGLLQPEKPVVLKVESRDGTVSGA
Chain of Mitogen-activated protein kinase 14 (Q16539 whole entry): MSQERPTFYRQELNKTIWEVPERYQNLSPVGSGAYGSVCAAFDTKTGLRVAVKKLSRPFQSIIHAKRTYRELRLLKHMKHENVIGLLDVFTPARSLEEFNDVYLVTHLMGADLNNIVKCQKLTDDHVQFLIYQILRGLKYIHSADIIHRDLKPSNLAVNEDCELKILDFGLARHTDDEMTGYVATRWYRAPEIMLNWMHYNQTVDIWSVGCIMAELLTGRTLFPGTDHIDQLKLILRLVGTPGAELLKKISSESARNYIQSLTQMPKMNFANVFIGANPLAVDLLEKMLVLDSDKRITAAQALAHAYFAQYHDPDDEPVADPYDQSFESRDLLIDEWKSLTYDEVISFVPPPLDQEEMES
Chain of CYP2C19 (P33261 whole entry): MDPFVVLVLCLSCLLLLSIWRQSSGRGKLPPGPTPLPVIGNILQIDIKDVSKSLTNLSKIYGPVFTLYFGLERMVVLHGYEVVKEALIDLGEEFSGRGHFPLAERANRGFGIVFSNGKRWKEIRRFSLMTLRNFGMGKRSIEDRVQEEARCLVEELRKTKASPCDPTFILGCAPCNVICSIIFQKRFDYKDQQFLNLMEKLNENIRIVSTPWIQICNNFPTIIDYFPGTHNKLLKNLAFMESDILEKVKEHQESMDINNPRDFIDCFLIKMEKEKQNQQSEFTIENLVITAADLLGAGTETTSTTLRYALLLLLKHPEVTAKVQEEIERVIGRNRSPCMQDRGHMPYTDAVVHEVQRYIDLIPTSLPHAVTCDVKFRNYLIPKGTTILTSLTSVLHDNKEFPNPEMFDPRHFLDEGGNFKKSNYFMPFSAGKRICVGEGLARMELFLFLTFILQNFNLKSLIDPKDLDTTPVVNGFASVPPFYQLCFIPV
Chain of CYP2C9 (P11712 whole entry): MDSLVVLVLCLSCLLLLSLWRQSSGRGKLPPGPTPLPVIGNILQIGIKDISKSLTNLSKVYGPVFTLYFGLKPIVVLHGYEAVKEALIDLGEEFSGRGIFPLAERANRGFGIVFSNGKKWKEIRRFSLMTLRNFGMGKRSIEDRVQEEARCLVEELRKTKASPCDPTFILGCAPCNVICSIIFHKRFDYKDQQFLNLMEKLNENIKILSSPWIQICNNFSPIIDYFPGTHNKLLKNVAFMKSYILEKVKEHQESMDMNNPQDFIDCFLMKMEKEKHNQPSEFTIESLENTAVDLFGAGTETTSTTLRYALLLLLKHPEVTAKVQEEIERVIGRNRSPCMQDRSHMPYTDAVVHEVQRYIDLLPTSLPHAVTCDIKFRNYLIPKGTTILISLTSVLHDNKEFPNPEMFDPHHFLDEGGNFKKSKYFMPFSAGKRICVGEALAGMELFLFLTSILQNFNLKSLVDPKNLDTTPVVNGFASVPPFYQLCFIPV

Consider `COCCn1c(SC)nc(-c2ccc(F)cc2)c1-c1ccnc(N[C@H]2CC[C@H](O)CC2)c1`, for which the inhibition at 10 µM in series [1] was 58%; in series [2] it was 24%; in series [3], 80%; in series [4] it was 40%; in series [6] it was 23%. Also, the values for the IC50 in series [5] and in series [7] were 1650 nM and 3 nM, respectively.

Turning to `CSc1nc(-c2ccc(F)cc2)c(-c2ccnc(NCCc3cc(C)ccc3C)c2)[nH]1`, the IC50 amounted to 51500 nM in series [5], 82 nM in series [7] and 59300 nM in series [8].

Turning to `CSc1nc(-c2ccc(F)cc2)c(-c2ccnc(NCc3cccnc3)c2)[nH]1`, the inhibition at 10 µM was 81% in series [1]; 54% in series [2]; 93% in series [3]; 77% in series [4]; 67% in series [6]. Also, the IC50 in series [5] amounted to 9850 nM; in series [7] it was 98 nM.

For `CSc1nc(-c2ccnc(NC3CCCc4ccccc43)c2)c(-c2ccc(F)cc2)[nH]1` (configuration not stated), the IC50 was 2810 nM in series [5], 47 nM in series [7] and 16200 nM in series [8].

On to `CSc1nc(-c2ccc(F)cc2)c(-c2ccnc(NCc3cccs3)c2)[nH]1`, for which the inhibition at 10 µM amounted to 78% in series [1]; 51% in series [2]; 83% in series [3]; 82% in series [4]; 83% in series [6]. Moreover, the IC50 in series [5] is 4880 nM; in series [7], 46 nM.

With `CSc1nc(-c2ccc(F)cc2)c(-c2ccnc(NC3CCCCC3C)c2)[nH]1` (mixture of isomers), the IC50 in series [5] stood at 458 nM; in series [7] it was 13 nM; in series [8], 136 nM.

As for `COCCn1c(SC)nc(-c2ccc(F)cc2)c1-c1ccnc(N[C@@H](C)c2ccccc2)c1`, the inhibition at 10 µM is 95% in series [1]; 25% in series [2]; 81% in series [3]; 85% in series [4]; 5% in series [6]. The results for the IC50 in series [5] and in series [7] were 580 nM and 40 nM, respectively.

As to `CCC(Nc1cc(-c2nc(SC)[nH]c2-c2ccc(F)cc2)ccn1)c1ccccc1` (configuration not stated), the inhibition at 10 µM in series [1] was found to be 88%; in series [2], 73%; in series [3], 81%; in series [4] it was 80%; in series [6], 55%. In addition, the IC50 in series [7] was determined as 68 nM.

As to `COCCn1c(SC)nc(-c2ccc(F)cc2)c1-c1ccnc(N[C@H](C)c2ccccc2)c1`, the inhibition at 10 µM in series [1] was 83%; in series [2] it was 64%; in series [3] it was 87%; in series [4], 71%; in series [6] it was 25%. Further, the IC50 was 9860 nM in series [5] and 610 nM in series [7].

For `CSc1nc(-c2ccc(F)cc2)c(-c2ccnc(NCc3ccco3)c2)[nH]1`, the inhibition at 10 µM in series [1] was 63%; in series [2] it was 66%; in series [3], 81%; in series [4] it was 71%; in series [6], 76%. Besides, the IC50 in series [5] amounted to 5520 nM; in series [7], 60 nM.

As to `CSc1nc(-c2ccc(F)cc2)c(-c2ccnc(NCC3CCCCC3)c2)[nH]1`, the inhibition at 10 µM in series [1] stood at 80%; in series [2] it was 63%; in series [3], 80%; in series [4] it was 73%; in series [6], 62%. Further, the IC50 amounted to 5940 nM in series [5] and 80 nM in series [7].

Consider `CSc1nc(-c2ccc(F)cc2)c(-c2ccnc(N[C@@H](C)c3ccccc3)c2)n1C`, for which the inhibition at 10 µM in series [1] turned out to be 76%; in series [2], 27%; in series [3] it was 87%; in series [4], 66%; in series [6], 60%. Further, the IC50 came to 1710 nM in series [5] and 70 nM in series [7].

As to `CSc1nc(-c2ccc(F)cc2)c(-c2ccnc(NCc3ccccn3)c2)[nH]1`, the inhibition at 10 µM in series [1] amounted to 47%; in series [2] it was 9%; in series [3] it was 53%; in series [4], 52%; in series [6], 53%. Besides, the IC50 in series [5] is 4320 nM; in series [7] it was 70 nM.

Turning to `C[S+]([O-])c1ccc(-c2nc(-c3ccncc3)c(-c3ccc(F)cc3)[nH]2)cc1` (configuration not stated) [SB-203580], the inhibition at 10 µM in series [4] was 87%; in series [6] it was 38%.

As to `CSc1nc(-c2cccc(C(F)(F)F)c2)c(-c2ccnc(NC3CCCc4ccccc43)c2)[nH]1` (configuration not stated), the IC50 in series [5] came out at 21200 nM; in series [7], 248 nM; in series [8], 10300 nM.

In the case of `CSc1nc(-c2ccc(F)cc2)c(-c2ccnc(N[C@H](C)c3ccccc3)c2)n1C`, the inhibition at 10 µM came out at 87% in series [1]; 53% in series [2]; 85% in series [3]; 78% in series [4]; 52% in series [6]. Also, the IC50 in series [5] was over 20000 nM; in series [7] it was 960 nM.

`CSc1nc(-c2cccc(C(F)(F)F)c2)c(-c2ccnc(NC(C)CCc3ccccc3)c2)[nH]1` (configuration not stated): the IC50 in series [5] turned out to be 4640 nM; in series [7], 49 nM; in series [8], 1290 nM.

With `CSc1nc(-c2ccc(F)cc2)c(-c2ccnc(NCC(C)c3ccccc3)c2)[nH]1` (configuration not stated), the IC50 came to 3930 nM in series [5], 17 nM in series [7] and 10100 nM in series [8].

Turning to `CSc1nc(-c2ccc(F)cc2)c(-c2ccnc(NC(C)C(C)(C)C)c2)[nH]1` (configuration not stated), the results for the IC50 in series [5] and in series [7] were 435 nM and 230 nM, respectively.

As to `CCSc1nc(-c2ccc(F)cc2)c(-c2ccnc(Cl)c2)[nH]1`, the values for the IC50 in series [5] and in series [7] were 36000 nM and 372 nM, respectively.

As for `CSc1nc(-c2ccc(F)cc2)c(-c2ccnc3ccccc23)[nH]1`, the figures for the IC50 in series [5], in series [7] and in series [8] were 16800 nM, 411 nM and 35000 nM, respectively.

For the molecule `CCSc1cc(-c2nc(SC)[nH]c2-c2ccc(F)cc2)ccn1`, the results for the IC50 in series [5], in series [7] and in series [8] were 24100 nM, 87 nM and 61300 nM, respectively.

Turning to `CSc1nc(-c2ccc(F)cc2)c(-c2ccnc(NCc3ccc(F)cc3)c2)[nH]1`, the IC50 came to 22200 nM in series [5] and 173 nM in series [7].

`CSc1nc(-c2cccc(C(F)(F)F)c2)c(-c2ccnc(NC(C)C(C)C)c2)[nH]1` (configuration not stated): the IC50 in series [5] amounted to 2930 nM; in series [7], 34 nM; in series [8], 1360 nM.

Regarding `CCC(C)CNc1cc(-c2[nH]c(SC)nc2-c2ccc(F)cc2)ccn1` (configuration not stated), the values for the IC50 in series [5], in series [7] and in series [8] were 622 nM, 23 nM and 2760 nM, respectively.

Consider `CSc1nc(-c2ccc(F)cc2)c(-c2ccnc(N[C@H](C)C3CCCCC3)c2)[nH]1`, for which the results for the IC50 in series [5] and in series [7] were 3300 nM and 9 nM, respectively.

`COCCn1c(SC)nc(-c2ccc(F)cc2)c1-c1ccnc(NC[C@H]2CCCC[C@@H]2O)c1`: the IC50 in series [5] was determined as 11500 nM; in series [7], 235 nM.

For the molecule `CSc1nc(-c2cccc(C(F)(F)F)c2)c(-c2ccnc(F)c2)[nH]1`, the half-inhibitory concentration (IC50) came to 44200 nM in series [5] and 1090 nM in series [7].

As to `CSc1nc(-c2ccc(F)cc2)c(-c2ccncc2)n1C`, the results for the IC50 in series [5] and in series [8] were 5100 nM and 80 nM, respectively.
